Measurements: PMC9127750, “Structure-based design of CDC42 effector interaction inhibitors for the treatment of cancer” (Cell reports, 2022)
Several values for one entry are separate records, joined by “and”; a condition that tells them apart may be missing. Identical values can stand only once.

Test system: WM3248 melanoma cells, 486 antibodies
Experiment: Reverse phase protein arrays (RPPA)
Type: cell-based, Human
From the text: Pellets were snap frozen in liquid nitrogen and shipped to MD Anderson Cancer Center core RPPA facility for RPPA analysis (Table S5). Three biological replicates for each sample were generated.
Nomenclatures on the RPPA heatmaps: name_of_antibody.species_of_antibody.status_of_antibody. V - antibody validated; C - validation of antibody in progress; Q - antibody nonspecific; E – under evaluation; antibodies raised in M - mouse, G - goat, R - rabbit, or T - rat.

[1] = level 5 normalized to 0, mean of 3
[2] = level 5 normalized to 0, single replicates

CN(C)c1cccc(Nc2cc(-c3ccccc3)nc(C3CCNCC3)n2)c1 [ARN22089, N1,N1-dimethyl-N3-(6-phenyl-2-(piperidin-4-yl)pyrimidin-4-yl)benzene-1,3-diamine]
S6 phosphorylation at serine 235/236 and 240/244 (RPPA) (WM3248, 6 h, 10 and 20 μM): inhibit S6 phosphorylation | number of proteins with significantly influenced phosphorylation (RPPA) (WM3248, 6 h, 10 and/or 20 μM): 10 | number of proteins with significantly influenced abundance (RPPA) (WM3248, 6 h, 10 and/or 20 μM, 486 antibodies): 38 | TSC1.R.C Norm_5 Average [1]: 1.102 | TTF1.R.V Norm_5 Average [1]: 1.049 | TUFM.R.V Norm_5 Average [1]: 0.868 | Tuberin_pT1462.R.V Norm_5 Average [1]: 0.977 | Twist.M.C Norm_5 Average [1]: 0.950 | Tyro3.R.V Norm_5 Average [1]: 1.005 | U.Histone.H2B.R.C Norm_5 Average [1]: 1.142 | UBAC1.R.V Norm_5 Average [1]: 0.993 | UBQLN4.M.C Norm_5 Average [1]: 1.016 | ULK1_pS757.R.C Norm_5 Average [1]: 1.079 | UQCRC2.M.C Norm_5 Average [1]: 0.979 | UVRAG.R.C Norm_5 Average [1]: 1.020 | VASP.R.V Norm_5 Average [1]: 0.994 | VAV1.R.C Norm_5 Average [1]: 1.019 | VEGFR.2.R.V Norm_5 Average [1]: 1.081 | VEGFR.2_pY1175.R.C Norm_5 Average [1]: 0.910 | VHL.R.C Norm_5 Average [1]: 0.932 | Vinculin.M.V Norm_5 Average [1]: 1.019 | WIPI1.R.C Norm_5 Average [1]: 1.058 | WIPI2.R.C Norm_5 Average [1]: 1.061 | WTAP.R.V Norm_5 Average [1]: 0.959 | Wee1.R.C Norm_5 Average [1]: 1.054 | Wee1_pS642.R.C Norm_5 Average [1]: 0.993 | XBP.1.G.C Norm_5 Average [1]: 0.977 | XIAP.R.C Norm_5 Average [1]: 1.035 | XPA.M.V Norm_5 Average [1]: 0.929 | XPF.R.C Norm_5 Average [1]: 0.943 | XRCC1.R.C Norm_5 Average [1]: 0.946 | YAP.R.C Norm_5 Average [1]: 0.953 | YAP_pS127.R.V Norm_5 Average [1]: 0.906 | YB1_pS102.R.V Norm_5 Average [1]: 0.961 | YES1.R.V Norm_5 Average [1]: 0.962 | YTHDF2.R.V Norm_5 Average [1]: 1.076 | YTHDF3.R.C Norm_5 Average [1]: 0.987 | ZAP.70.R.V Norm_5 Average [1]: 0.952 | ZEB1.R.V Norm_5 Average [1]: 0.892 | TSC1.R.C Norm_5_1 to Norm_5_3 [2]: 1.060 and 1.024 and 1.221 | TTF1.R.V Norm_5_1 to Norm_5_3 [2]: 1.035 and 1.145 and 0.966 | TUFM.R.V Norm_5_1 to Norm_5_3 [2]: 0.845 and 0.669 | Tuberin.R.V Norm_5_1 to Norm_5_3 [2]: 1.052 and 1.301 | Tuberin_pT1462.R.V Norm_5_1 to Norm_5_3 [2]: 0.994 and 0.956 and 0.983 | Twist.M.C Norm_5_1 to Norm_5_3 [2]: 0.898 and 0.964 and 0.990 | Tyro3.R.V Norm_5_1 to Norm_5_3 [2]: 1.008 and 1.152 and 0.855 | U.Histone.H2B.R.C Norm_5_1 to Norm_5_3 [2]: 1.497 and 1.118 and 0.811 | UBAC1.R.V Norm_5_1 to Norm_5_3 [2]: 0.966 and 1.139 and 0.875 | UBQLN4.M.C Norm_5_1 to Norm_5_3 [2]: 0.962 and 1.147 | UGT1A.M.V Norm_5_1 to Norm_5_3 [2]: 0.962 and 0.965 and 0.979 | ULK1_pS757.R.C Norm_5_1 to Norm_5_3 [2]: 0.993 and 1.063 | UQCRC2.M.C Norm_5_1 to Norm_5_3 [2]: 0.997 and 1.139 and 0.800 | UVRAG.R.C Norm_5_1 to Norm_5_3 [2]: 1.096 and 0.960 and 1.005 | VASP.R.V Norm_5_1 to Norm_5_3 [2]: 1.053 and 0.992 | VAV1.R.C Norm_5_1 to Norm_5_3 [2]: 1.027 and 0.961 | VEGFR.2.R.V Norm_5_1 to Norm_5_3 [2]: 0.985 and 1.166 | VEGFR.2_pY1175.R.C Norm_5_1 to Norm_5_3 [2]: 0.849 and 0.870 and 1.011 | VHL.EPPK1.M.C Norm_5_1 to Norm_5_3 [2]: 0.542 and 1.028 and 0.909 | VHL.R.C Norm_5_1 to Norm_5_3 [2]: 0.928 and 0.903 and 0.966 | Vinculin.M.V Norm_5_1 to Norm_5_3 [2]: 0.942 and 1.027 | WIPI1.R.C Norm_5_1 to Norm_5_3 [2]: 1.134 and 1.302 and 0.738 | WIPI2.R.C Norm_5_1 to Norm_5_3 [2]: 1.104 and 0.916 and 1.163 | WTAP.R.V Norm_5_1 to Norm_5_3 [2]: 0.932 and 0.904 | Wee1.R.C Norm_5_1 to Norm_5_3 [2]: 0.867 and 1.101 and 1.195 | Wee1_pS642.R.C Norm_5_1 to Norm_5_3 [2]: 0.917 and 0.940 and 1.121 | XBP.1.G.C Norm_5_1 to Norm_5_3 [2]: 0.957 and 1.060 and 0.914 | XIAP.R.C Norm_5_1 to Norm_5_3 [2]: 1.060 and 0.982 and 1.062 | XPA.M.V Norm_5_1 to Norm_5_3 [2]: 0.895 and 0.876 and 1.017 | XPF.R.C Norm_5_1 to Norm_5_3 [2]: 0.932 and 0.922 and 0.975 | XRCC1.R.C Norm_5_1 to Norm_5_3 [2]: 0.894 and 1.030 and 0.916 | YAP.R.C Norm_5_1 to Norm_5_3 [2]: 0.937 and 0.945 and 0.977 | YAP_pS127.R.V Norm_5_1 to Norm_5_3 [2]: 0.985 and 0.903 and 0.830 | YB1_pS102.R.V Norm_5_1 to Norm_5_3 [2]: 0.906 | YES1.R.V Norm_5_1 to Norm_5_3 [2]: 0.963 and 1.014 and 0.910 | YTHDF2.R.V Norm_5_1 to Norm_5_3 [2]: 1.138 and 1.217 and 0.872 | YTHDF3.R.C Norm_5_1 to Norm_5_3 [2]: 1.049 and 0.875 | ZAP.70.R.V Norm_5_1 to Norm_5_3 [2]: 0.889 and 1.054 | ZEB1.R.V Norm_5_1 to Norm_5_3 [2]: 0.816 and 0.893 and 0.967 | HLA.DQA1.R.V Norm_5 Average (level 5 vs 0): 0.908 | HLA.DR.DP.DQ.DX.R.C Norm_5 Average (level 5 vs 0): 0.994 | HSP27.M.C Norm_5 Average (level 5 vs 0): 0.932 | HSP27_pS82.R.V Norm_5 Average (level 5 vs 0): 1.025 | HSP60.R.V Norm_5 Average (level 5 vs 0): 1.006 | HSP70.R.C Norm_5 Average (level 5 vs 0): 1.035 | Hexokinase.I.R.C Norm_5 Average (level 5 vs 0): 1.032 | Hexokinase.II.R.V Norm_5 Average (level 5 vs 0): 1.130 | Hif.1αR.C Norm_5 Average (level 5 vs 0): 1.202 | Histone.H3.R.V Norm_5 Average (level 5 vs 0): 1.065 | Histone.H3_pS10.R.V Norm_5 Average (level 5 vs 0): 0.786 | IDO.R.C Norm_5 Average (level 5 vs 0): 1.015 | IGF1R_pY1135_Y1136.R.V Norm_5 Average (level 5 vs 0): 1.003 | IGFBP2.R.V Norm_5 Average (level 5 vs 0): 1.029 | IGFBP3.M.V Norm_5 Average (level 5 vs 0): 0.953 | IGFRb.R.C Norm_5 Average (level 5 vs 0): 1.085 | IL.6.R.C Norm_5 Average (level 5 vs 0): 1.015 | INPP4b.R.C Norm_5 Average (level 5 vs 0): 1.023 | IR.b.R.C Norm_5 Average (level 5 vs 0): 1.051 | IRF.1.R.V Norm_5 Average (level 5 vs 0): 0.995 | IRF.3.R.V Norm_5 Average (level 5 vs 0): 0.937 | IRS1.R.V Norm_5 Average (level 5 vs 0): 1.023 | IRS2.R.C Norm_5 Average (level 5 vs 0): 0.992 | JNK2.R.V Norm_5 Average (level 5 vs 0): 1.065 | JNK_pT183_Y185.R.C Norm_5 Average (level 5 vs 0): 0.992 | Jagged1.R.V Norm_5 Average (level 5 vs 0): 0.984 | Jak2.R.V Norm_5 Average (level 5 vs 0): 1.003 | KEAP1.R.V Norm_5 Average (level 5 vs 0): 0.955 | LAD1.R.V Norm_5 Average (level 5 vs 0): 0.963 | LC3A.B.R.C Norm_5 Average (level 5 vs 0): 1.012 | LCN2.R.V Norm_5 Average (level 5 vs 0): 1.298 | LDHA.R.C Norm_5 Average (level 5 vs 0): 1.102 | LRP6_pS1490.R.V Norm_5 Average (level 5 vs 0): 1.046 | Lasu1.R.V Norm_5 Average (level 5 vs 0): 0.972 | Lck.R.V Norm_5 Average (level 5 vs 0): 1.010 | Lyn.R.V Norm_5 Average (level 5 vs 0): 0.844 | MAPK_pT202_Y204.R.C Norm_5 Average (level 5 vs 0): 0.869 | MCT4.R.V Norm_5 Average (level 5 vs 0): 1.048 | MDM2_pS166.R.V Norm_5 Average (level 5 vs 0): 1.023 | MEK1.R.V Norm_5 Average (level 5 vs 0): 1.023 | MEK1_pS217_S221.R.V Norm_5 Average (level 5 vs 0): 0.982 | MERIT40.R.C Norm_5 Average (level 5 vs 0): 0.989 | METTL3.R.V Norm_5 Average (level 5 vs 0): 0.986 | MIF.R.C Norm_5 Average (level 5 vs 0): 0.948 | MIG6.R.V Norm_5 Average (level 5 vs 0): 0.939 | MITF.R.V Norm_5 Average (level 5 vs 0): 1.020 | MLH1.M.V Norm_5 Average (level 5 vs 0): 0.926 | MLKL.R.V Norm_5 Average (level 5 vs 0): 0.945 | MMP2.R.V Norm_5 Average (level 5 vs 0): 0.946 | MR1.M.C Norm_5 Average (level 5 vs 0): 0.994 | MRAP.R.C Norm_5 Average (level 5 vs 0): 1.051 | MSH2.R.C Norm_5 Average (level 5 vs 0): 0.954 | MSH6.R.C Norm_5 Average (level 5 vs 0): 1.056 | MSI2.R.C Norm_5 Average (level 5 vs 0): 1.081 | MTCO1.M.V Norm_5 Average (level 5 vs 0): 1.081 | MTSS1.M.C Norm_5 Average (level 5 vs 0): 0.950 | Mcl.1.R.V Norm_5 Average (level 5 vs 0): 0.960 | MelanA.R.C Norm_5 Average (level 5 vs 0): 1.007 | Melanoma.gp100.R.C Norm_5 Average (level 5 vs 0): 1.060 | Merlin.R.C Norm_5 Average (level 5 vs 0): 1.018 | Midkine.R.V Norm_5 Average (level 5 vs 0): 0.932 | Mitofusin.1.R.V Norm_5 Average (level 5 vs 0): 1.025 | Mnk1.R.V Norm_5 Average (level 5 vs 0): 1.012 | mTOR.R.V Norm_5 Average (level 5 vs 0): 1.033 | mTOR_pS2448.R.C Norm_5 Average (level 5 vs 0): 1.080 | HLA.DQA1.R.V Norm_5 (level 5 vs 0, replicates): 0.839 and 1.026 and 0.858 | HLA.DR.DP.DQ.DX.R.C Norm_5 (level 5 vs 0, replicates): 0.915 and 1.122 and 0.946 | HMHA1.R.V Norm_5 (level 5 vs 0, replicates): 1.034 and 1.050 and 1.124 | HNRNPK.R.V Norm_5 (level 5 vs 0, replicates): 0.924 and 0.922 and 0.995 | HSP27.M.C Norm_5 (level 5 vs 0, replicates): 0.955 and 1.006 and 0.835 | HSP27_pS82.R.V Norm_5 (level 5 vs 0, replicates): 0.966 and 0.991 and 1.118 | HSP60.R.V Norm_5 (level 5 vs 0, replicates): 1.007 and 0.973 | HSP70.R.C Norm_5 (level 5 vs 0, replicates): 1.007 and 1.047 and 1.051 | Hexokinase.I.R.C Norm_5 (level 5 vs 0, replicates): 1.009 and 1.149 | Hexokinase.II.R.V Norm_5 (level 5 vs 0, replicates): 1.156 and 1.123 and 1.110 | Hif.1αR.C Norm_5 (level 5 vs 0, replicates): 1.356 and 1.081 and 1.170 | Histone.H3.R.V Norm_5 (level 5 vs 0, replicates): 1.165 and 1.542 and 0.488 | Histone.H3_pS10.R.V Norm_5 (level 5 vs 0, replicates): 0.733 and 1.032 and 0.592 | IDO.R.C Norm_5 (level 5 vs 0, replicates): 1.121 and 0.959 and 0.966 | IGF1R_pY1135_Y1136.R.V Norm_5 (level 5 vs 0, replicates): 0.933 and 1.035 | IGFBP2.R.V Norm_5 (level 5 vs 0, replicates): 0.940 and 1.033 and 1.113 | IGFBP3.M.V Norm_5 (level 5 vs 0, replicates): 0.833 and 0.934 | IGFRb.R.C Norm_5 (level 5 vs 0, replicates): 1.063 and 1.065 and 1.126 | IL.6.R.C Norm_5 (level 5 vs 0, replicates): 1.051 and 0.961 and 1.033 | IMP3.R.C Norm_5 (level 5 vs 0, replicates): 0.861 and 0.973 and 1.018
